The bioavailability is dose-corrected exposure relative to a reference, in per cent.

Where two headings read alike, the source gives them in different places.

A short description of this data set: PK assay in rat (IV and PO). The settings on record: plasma, SD rats; for bioavailability: read-out: F % (absolute bioavailability); for clearance: read-out: Cl_obs iv (clearance rate) (converted); for Vd: read-out: Vz_obs iv (apparent volume of distribution); for Tmax: read-out: Tmax po (time of maximum observed plasma concentration). In kind it is in vivo. As for the experimental part: The experimental compounds were each dissolved in a mixture of 5% DMSO+20% (30% solutol)+75% saline to prepare compound solutions. The compound solutions were intragastrically administered to SD rats at a dosage of 5.0 mg/kg. The blood was sampled at time points of 15 min, 30 min, 1 hr, 2 hrs, 4 hrs, 6 hrs, 8 hrs and 24 hrs after administration.
The experimental compounds were each dissolved in a mixture of 5% DMSO+20% (30% solutol)+75% saline to prepare compound solutions. The compound solutions were intravenously administered to SD rats at a dosage of 1 mg/kg. The blood was sampled at time points of 5 min, 15 min, 30 min, 1 hr, 2 hrs, 4 hrs, 6 hrs, 8 hrs and 24 hrs after administration.
The animals were fixed, and the tails were heated under a water bath 10 min before each sampling time. About 100 μL of blood was collected via the tail vein, and the collected blood was placed in an anticoagulant tube containing EDTA-K2. The blood samples were centrifuged at 8,000 rpm for 6 min at 4° C. to obtain plasma samples, and the plasma samples were prepared within 30 min after the blood collection. The plasma samples were stored in a refrigerator at −80° C. before test.
The sample to be tested was taken out from the −80° C. refrigerator, naturally thawed at room temperature, and vortexed for 5 min. 20 μL of plasma sample was pipetted to a 1.5 mL centrifuge tube, and 200 μL of internal standard working solution (a solution of tolbutamide in methanol, 100 ng/mL) was added. The resulting mixture was thoroughly mixed, vortexed for 5 min, and centrifuged at 12,000 rpm for 5 min. 50 μL of supernatant was precisely pipetted to a 96-well plate with 150 μL of water per well, and the resulting mixture was vortexed for 5 min and then used for LC-MS/MS analysis.

The mark [1] stands for this setting: IV 1 mg/kg, read-out: AUClast iv (area under plasma concentration-time curve, 0-24 h).
Where [2] appears, read: IV 1 mg/kg, read-out: tz1/2 iv (terminal half-life) (converted).
The mark [3] stands for this setting: PO 5 mg/kg, read-out: AUClast po (area under plasma concentration-time curve, 0-24 h).
Where [4] appears, read: PO 5 mg/kg, read-out: tz1/2 po (terminal half-life) (converted).

As for `COc1cc2nccc(Oc3ccc(NC(=O)c4nn(CC5CCOCC5)cc(-c5ccc(C)cc5)c4=O)nc3)c2cc1OC` [Compound 2, N-(5-((6,7-dimethoxyquinolin-4-yl)oxy)pyridin-2-yl)-4-oxo-1-((tetrahydro-2H-pyran-4-yl)methyl)-5-(p-tolyl)-1,4-dihydropyridazin-3-carboxamide], the bioavailability (IV 1 mg/kg, PO 5 mg/kg) worked out at 31.3%. Besides, the AUC(0-t) came out at 4070 ng·h/mL under setting [1] and 6620 ng·h/mL under setting [3]. The clearance (IV 1 mg/kg) is 4 mL/min/kg. The Vd (IV 1 mg/kg) came to 1.19 L/kg. For the same molecule, the half-life runs as follows: under setting [2], 3.47 h; under setting [4], 3.14 h. Besides, the Tmax (PO 5 mg/kg) was determined as 4 h.
Regarding `COc1cc2nccc(Oc3ccc(NC(=O)c4cc(-c5ccc(C)cc5)cn(CC5CCOCC5)c4=O)nc3)c2cc1OC` [Compound 13, N-(5-((6,7-dimethoxyquinolin-4-yl)oxy)pyridin 2yl)-2-oxo-1-((tetrahydro-2H-pyran-4-yl)methyl)-5-(p-tolyl)-1,2-dihydropyridin-3-carboxamide], where the note is “IV 1 mg/kg, PO 5 mg/kg”, the bioavailability was 46.4%. The AUC(0-t) reads like this: under setting [1], 4220 ng·h/mL; under setting [3], 9790 ng·h/mL. For the same molecule, the clearance (IV 1 mg/kg) is 3.33 mL/min/kg. For the same molecule, the Vd (IV 1 mg/kg) is 1.65 L/kg. Further, the half-life runs as follows: under setting [2], 9.08 h; under setting [4], 8.12 h. In addition, the Tmax (PO 5 mg/kg) turned out to be 4 h.
On to `COc1cc2nccc(Oc3ccc(NC(=O)c4nn(C5CCOCC5)cc(-c5ccc(C)cc5)c4=O)nc3)c2cc1OC` [Compound 17, N-(5-((6,7-dimethoxyquinolin-4-yl)oxy)pyridin-2-yl)-4-oxo-1-(tetrahydro-2H-pyran-4-yl)-5-(p-tolyl)-1,4-dihydropyridazin-3-carboxamide], for which, under “IV 1 mg/kg, PO 5 mg/kg”, the bioavailability was 70.7%. Also, the AUC(0-t) was determined as 4860 ng·h/mL under setting [1] and 17200 ng·h/mL under setting [3]. For the same molecule, the clearance (IV 1 mg/kg) is 3.5 mL/min/kg. Besides, under “IV 1 mg/kg”, the Vd is 1.18 L/kg. The half-life reads like this: under setting [2], 3.98 h; under setting [4], 3.5 h. Also, the Tmax (PO 5 mg/kg) is 6 h.
Consider `COc1cc2nccc(Oc3cnc(NC(=O)c4nn(C5CCOCC5)cc(-c5ccc(C)cc5)c4=O)nc3)c2cc1OC` [Compound 18, N-(5-((6,7-dimethoxyquinolin-4-yl)oxy)pyrimidin-2-yl)-4-oxo-1-(tetrahydro-2H-pyran-4-yl)-5-(p-tolyl)-1,4-dihydropyridazin-3-carboxamide], for which the bioavailability (IV 1 mg/kg, PO 5 mg/kg) came to 34.6%. The AUC(0-t) is 1500 ng·h/mL under setting [1] and 2600 ng·h/mL under setting [3]. For the same molecule, the clearance (IV 1 mg/kg) is 11 mL/min/kg. The Vd (IV 1 mg/kg) worked out at 0.92 L/kg. Moreover, the half-life by setting is: under setting [2], 0.96 h; under setting [4], 1.17 h. Besides, the Tmax (PO 5 mg/kg) is 0.5 h.
For the molecule `COc1cc2nccc(Oc3ccc(NC(=O)c4cn(C5CCOCC5)cc(-c5ccc(C)cc5)c4=O)nc3)c2cc1OC` [Compound 19, N-(5-((6,7-dimethoxyquinolin-4-yl)oxy)pyridin-2-yl)-4-oxo-1-(tetrahydro-2H-pyran-4-yl)-5-(p-tolyl)-1,4-dihydropyridin-3-carboxamide], for the setting “IV 1 mg/kg, PO 5 mg/kg”, the bioavailability worked out at 40.5%. Further, the AUC(0-t) under setting [1] turned out to be 2440 ng·h/mL and the AUC(0-t) under setting [3] worked out at 5450 ng·h/mL. Also, under “IV 1 mg/kg”, the clearance was 6.17 mL/min/kg. The Vd (IV 1 mg/kg) is 1.3 L/kg. Further, the half-life under setting [2] is 2.44 h and the half-life under setting [4] was 2.56 h. For the same molecule, the Tmax (PO 5 mg/kg) was found to be 1 h.
With `COc1cc2nccc(Oc3ccc(NC(=O)c4nn(C5CCOCC5)cc(-c5ccc(F)cc5)c4=O)nc3)c2cc1OC` [Compound 34, N-(5-((6,7-dimethoxyquinolin-4-yl)oxy)pyridin-2-yl)-5-(4-fluorophenyl)-4-oxo-1-(tetrahydro-2H-pyran-4-yl)-1,4-dihydropyridazin-3-carboxamide], under “IV 1 mg/kg, PO 5 mg/kg”, the bioavailability came out at 65.7%. Further, the AUC(0-t) under setting [1] worked out at 8440 ng·h/mL and the AUC(0-t) under setting [3] is 28000 ng·h/mL. Further, the clearance (IV 1 mg/kg) is 1.83 mL/min/kg. Moreover, under “IV 1 mg/kg”, the Vd is 0.84 L/kg. The half-life was 5.18 h under setting [2] and 4.56 h under setting [4]. Further, for the setting “PO 5 mg/kg”, the Tmax is 6 h.

The values are drawn from patent US20210177828A1, “TAM FAMILY KINASE /AND CSF1R KINASE INHIBITOR AND USE THEREOF” (Nanjing Transthera Biosciences Co., Ltd., priority 2018, published 2021).
